The text below walks through data of patent US20240174605A1, “ARYLSULFONAMIDES AS OREXIN RECEPTOR AGONISTS” (RESEARCH TRIANGLE INSTITUTE, priority 2021, published 2024).

For one data set, the target named is T1, human OX2 receptor (Homo sapiens, UniProt O43614).
T1 construct: host or cells: CHO RD-HGA16 cells
T1 sequence (O43614 1-444): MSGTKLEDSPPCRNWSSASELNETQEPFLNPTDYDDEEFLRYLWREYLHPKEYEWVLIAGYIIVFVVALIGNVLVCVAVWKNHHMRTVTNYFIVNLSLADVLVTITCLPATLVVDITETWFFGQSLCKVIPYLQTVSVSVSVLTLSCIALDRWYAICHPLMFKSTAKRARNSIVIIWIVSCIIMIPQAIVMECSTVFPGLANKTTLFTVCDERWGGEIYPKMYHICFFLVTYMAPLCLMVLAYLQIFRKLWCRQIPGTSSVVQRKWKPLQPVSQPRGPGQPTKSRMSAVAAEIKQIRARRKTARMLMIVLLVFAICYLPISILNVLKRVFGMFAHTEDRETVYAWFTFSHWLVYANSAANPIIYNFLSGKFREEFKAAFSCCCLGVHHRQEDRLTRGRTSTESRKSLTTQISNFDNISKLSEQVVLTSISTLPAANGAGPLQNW
The data set can be described thus: OX2R calcium mobilization assay. The data set is classed as cell-based. To be noted: for agonist potency at OX2R, in words: calcium mobilization; for Emax: Table 10. As for the experimental part: (§1) Activity of the target compounds at the human OX1 and OX2 receptors was determined utilizing CHO RD-HGA16 cells (Molecular Devices) engineered to stably express either the human OX1 or the human OX2 receptor. Cells were maintained in Ham's F12 supplemented with 10% fetal bovine serum, 100 units of penicillin and streptomycin, and 100 μg/mL normocin™. To conduct the assay, cells were plated at 25,000 cells/well and incubated overnight at 37° C., 5% CO2. The next day, cells were washed with assay buffer and loaded with Calcium 5 dye (Molecular Devices). After 45 minutes, cells were pretreated with a 9% DMSO solution for 15 minutes.
(§2) All of the synthesized compounds were characterized for their agonist potencies in the calcium mobilization assays using CHO cells overexpressing either the OX1R or OX2R. Reference is made to German, N. A.; Decker, A. M.; Gilmour, B. P.; Thomas, B. F.; Zhang, Y., Truncated Orexin Peptides: Structure-Activity Relationship Studies.
Background: Calcium flux is commonly read through the fluorescence of an indicator in the cells.

The target in data set [1] is T2, OX1R (Homo sapiens, UniProt O43613).
T2 sequence (O43613 1-425): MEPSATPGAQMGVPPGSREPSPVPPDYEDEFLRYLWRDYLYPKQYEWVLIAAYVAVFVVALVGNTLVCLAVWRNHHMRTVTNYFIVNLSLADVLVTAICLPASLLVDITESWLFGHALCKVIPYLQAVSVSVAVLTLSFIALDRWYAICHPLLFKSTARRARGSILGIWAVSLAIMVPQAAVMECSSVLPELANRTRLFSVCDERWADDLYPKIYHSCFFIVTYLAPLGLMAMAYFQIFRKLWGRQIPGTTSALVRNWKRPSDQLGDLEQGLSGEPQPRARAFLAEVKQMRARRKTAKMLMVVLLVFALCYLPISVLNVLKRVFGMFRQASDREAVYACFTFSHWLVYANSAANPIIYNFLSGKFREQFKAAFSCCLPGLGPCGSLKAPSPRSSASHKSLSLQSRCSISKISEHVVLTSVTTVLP
The data set can be described thus: OX1R calcium mobilization assay. The data set is classed as cell-based. Details: host or cells: CHO RD-HGA16 cells. To be noted: for OX1/OX2: ratio of OX1 to OX2 potency value; for agonist potency at OX1R, in words: calcium mobilization. As for the experimental part: as §1, §2

Data set [2] can be described thus: Aqueous solubility at pH 2. The data set is classed as physicochemical. To be noted: aqueous medium at pH 2, pH 2, simulated gastric fluid. The source says:
(§3) The main structural difference is the pyridyl group connected to the sulfonamide in RTIOXA-47, as compared to the other 3 compounds. The replacement of a phenyl group with a pyridyl reduced the electron density of this aromatic ring.

The nature of data set [3]: Metabolic stability in rat liver microsomes (RLM). To be noted: for metabolic stability in rat liver microsomes, in words: RLM; for half-life: rat, rat liver microsomes, read-out: t1/2 (RLM). The data set is classed as in vitro ADME.
From the text: as §3

Data set [4] concerns the target T2, OX1R. The settings on record: literature; cited from earlier work.
A further data set concerns the target both orexin receptors. To be noted: literature (Turku et al. 2017); cited from earlier work.
The conditions of data set [5]: literature (Turku et al. 2017); cited from earlier work.
The mark [6] stands for this setting: CHO RD-HGA16 cells expressing human OX2, calcium mobilization, read-out: EC50 (OX2).
The mark [7] stands for this setting: CHO RD-HGA16 cells expressing human OX1, calcium mobilization, read-out: EC50 (OX1).

Converted amounts (≈) assume the structure as drawn. Read-outs that look alike come from different tables or passages of the source.

The EC50 is the midpoint of the concentration-response curve. Take `COc1ccc(-c2cccc(C(=O)N3CCCC3)c2)cc1S(=O)(=O)Nc1cccc(NCCNC(=O)c2ccccc2N(C)C)c1` [Compound 3]: the EC50 on human OX2 receptor (setting [6]) worked out at 0.252 µM.

Take `CCCNC(=O)c1cccc(-c2ccc(OC)c(S(=O)(=O)Nc3cccc(NCCNC(=O)c4ccccc4N(C)C)c3)c2)c1` [Compound 4]: the EC50 on OX1R [1] (setting [7]) is over 10 µM. In addition, at OX1R [1], the OX1/OX2 is reported as over 20.

As for `CCN(CC)C(=O)c1cccc(-c2ccc(OC)c(S(=O)(=O)Nc3cccc(NCCNC(=O)c4ccccc4N(C)C)c3)c2)c1` [Compound 5], the EC50 at OX1R [1] (setting [7]) was found to be 0.737 µM. Moreover, the OX1/OX2 on OX1R [1] stood at 3.32.

For the compound `COc1ccc(-c2cccc(C(C)C)c2)cc1S(=O)(=O)Nc1cccc(NCCNC(=O)c2ccccc2N(C)C)c1` [Compound 6], the EC50 at human OX2 receptor (setting [6]) and on OX1R [1] (setting [7]) was over 10 µM throughout.

`COc1ccc(-c2cccc(N(C)C)c2)cc1S(=O)(=O)Nc1cccc(NCCNC(=O)c2ccccc2N(C)C)c1` [Compound 7]: the EC50 is 2.13 µM at human OX2 receptor (setting [6]) and over 10 µM on OX1R [1] (setting [7]). Further, on OX1R [1], the OX1/OX2 is on record as over 20.

Take `CCN(CC)c1cccc(-c2ccc(OC)c(S(=O)(=O)Nc3cccc(NCCNC(=O)c4ccccc4N(C)C)c3)c2)c1` [Compound 8]: on OX1R [1] (setting [7]), the EC50 was over 10 µM. For the same compound, the OX1/OX2 at OX1R [1] is given as over 20.

For `CCCN(CCC)c1cccc(-c2ccc(OC)c(S(=O)(=O)Nc3cccc(NCCNC(=O)c4ccccc4N(C)C)c3)c2)c1` [Compound 9], the EC50 on human OX2 receptor (setting [6]) and on OX1R [1] (setting [7]) was over 10 µM each time.

As to `COc1ccc(-c2cccc(C(C)(C)C)c2)cc1S(=O)(=O)Nc1cccc(NCCNC(=O)c2ccccc2N(C)C)c1` [Compound 10], the EC50 on human OX2 receptor (setting [6]) and at OX1R [1] (setting [7]) was over 10 µM throughout.

With `COc1ccc(-c2cccc(C(F)(F)F)c2)cc1S(=O)(=O)Nc1cccc(NCCNC(=O)c2ccccc2N(C)C)c1` [Compound 11], the EC50 at human OX2 receptor (setting [6]) and at OX1R [1] (setting [7]) was over 10 µM each time.

With `COc1ccc(-c2cccc(C(=O)N(C)C)c2)cc1S(=O)(=O)Nc1cccc(N2CCN(C(=O)c3ccccc3N(C)C)CC2)c1` [Compound 17], the EC50 on human OX2 receptor (setting [6]) and at OX1R [1] (setting [7]) was over 10 µM in each case.

For the compound `COc1ccc(-c2cccc(C(=O)N(C)C)c2)cc1S(=O)(=O)Nc1cccc(N2CCN(C(=O)c3cccc(C)c3)CC2)c1` [Compound 18], the EC50 at human OX2 receptor (setting [6]) and at OX1R [1] (setting [7]) was over 10 µM in each case.

As to `COc1ccc(-c2cccc(C(=O)NCCN(C)C)c2)cc1S(=O)(=O)Nc1cccc(NCCNC(=O)c2cccc(C)c2)c1` [Compound 32], the “agonist potency at OX2R, in words” value on human OX2 receptor is “sharp decrease of potency”. Besides, on OX1R [1], the “agonist potency at OX1R, in words” value is “complete loss of potency” and the OX1/OX2 is reported as over 10.0.

On to `COc1ccc(-c2cccc(C(=O)N(C)c3ccccn3)c2)cc1S(=O)(=O)Nc1cccc(NCCNC(=O)c2cccc(C)c2)c1` [Compound 33], for which the OX1/OX2 on OX1R [1] was determined as 4.69.

As for `COc1ccc(-c2cccc(C(=O)NCc3ccccn3)c2)cc1S(=O)(=O)Nc1cccc(NCCNC(=O)c2cccc(C)c2)c1` [Compound 36], at OX1R [1], the “agonist potency at OX1R, in words” value was “complete loss of the OX1R potency” and the OX1/OX2 is over 20.0.

What is called Emax is the greatest response seen or fitted, relative to the assay's reference. By solubility is commonly meant the concentration that dissolves in the medium under given conditions. Read a low solubility as little dissolved substance. In the case of `COc1ccc(-c2cccc(C(=O)N(C)Cc3ccncc3)c2)cc1S(=O)(=O)Nc1cccc(NCCNC(=O)c2cccc(C)c2)c1` [Compound 38], on human OX2 receptor, the Emax came out at 96%; the “agonist potency at OX2R, in words” value is “high and equal potency”. The compound further came in with a solubility in data set [2] of 313 µM (≈ 208 µg/mL). Besides, in data set [3], the “metabolic stability in rat liver microsomes, in words” value was “modest metabolic stability” and the half-life was found to be 1.9 min. Besides, at OX1R [1] (Table 10), the Emax is 105%. Besides, at OX1R [1] (Table 10, read-out: OX1R EC50), the EC50 is 0.024 µM. In addition, at OX1R [1], the “agonist potency at OX1R, in words” value is “high and equal potency”; the OX1/OX2 turned out to be 1.0.

On to `COc1ccc(-c2cccc(C(=O)N(C)CCc3ccccn3)c2)cc1S(=O)(=O)Nc1cccc(NCCNC(=O)c2cccc(C)c2)c1` [Compound 39], for which the OX1/OX2 on OX1R [1] is given as 2.78.

For the compound `COc1ccc(-c2cccc(C(=O)N(C)C)c2)cc1C(=O)Nc1cccc(NCCNC(=O)c2cccc(C)c2)c1` [Compound 41], the “agonist potency at OX1R, in words” value on OX1R [1] is “inactive”.

Consider `COc1ccc(-c2cccc(C(=O)N(C)Cc3ccncc3)c2)cc1-c1nnc(Nc2cccc(NCCNC(=O)c3cccc(C)c3)c2)s1` [Compound 43], for which the “agonist potency at OX2R, in words” value at human OX2 receptor was “inactive”. Besides, the “agonist potency at OX1R, in words” value on OX1R [1] was “inactive”.

`COc1ccc(-c2cccc(C(=O)N(C)Cc3ccncc3)c2)cc1-c1nnc(Nc2cccc(OCCNC(=O)c3cccc(C)c3)c2)s1` [Compound 44]: the “agonist potency at OX2R, in words” value on human OX2 receptor was “inactive”. On OX1R [1], the “agonist potency at OX1R, in words” value is “inactive”.

For `COc1ccc(-c2cccc(C(=O)N(C)Cc3ccncc3)c2)cc1S(=O)(=O)Nc1cncc(OCCNC(=O)c2cccc(C)c2)c1` [Compound 55], the OX1/OX2 at OX1R [1] was determined as 1.52.

Consider `COc1ccc(-c2cccc(C(=O)N(C)Cc3ccncc3)n2)cc1S(=O)(=O)Nc1cccc(NCCNC(=O)c2cccc(C)c2)c1` [Compound 59], for which, at human OX2 receptor, the maximal effect (Emax) stood at 94%. In data set [2], this compound displayed a solubility of over 400 µM. Also, in data set [3], the “metabolic stability in rat liver microsomes, in words” value is recorded as “modest metabolic stability” and the half-life stood at 1.8 min. Further, the Emax on OX1R [1] (Table 10) worked out at 95%.

Turning to `CCC(=O)NCCNc1cncc(NS(=O)(=O)c2cc(-c3cccc(C(=O)N(C)Cc4ccncc4)c3)ccc2OC)c1` [Compound 63], the OX1/OX2 at OX1R [1] was found to be 0.48.

Take `COc1ccc(-c2cccc(C(=O)N(C)Cc3ccncc3)c2)cc1S(=O)(=O)Nc1cncc(NCCNC(=O)C(C)C)c1` [Compound 64]: at OX1R [1], the OX1/OX2 was found to be 0.46.

Take `CCCC(=O)NCCNc1cncc(NS(=O)(=O)c2cc(-c3cccc(C(=O)N(C)Cc4ccncc4)c3)ccc2OC)c1` [Compound 65]: on OX1R [1], the OX1/OX2 is 0.60.

With `CCCCC(=O)NCCNc1cncc(NS(=O)(=O)c2cc(-c3cccc(C(=O)N(C)Cc4ccncc4)c3)ccc2OC)c1` [Compound 66], the OX1/OX2 at OX1R [1] came out at 0.33.

Turning to `CCCCCC(=O)NCCNc1cncc(NS(=O)(=O)c2cc(-c3cccc(C(=O)N(C)Cc4ccncc4)c3)ccc2OC)c1` [Compound 67], on human OX2 receptor, the EC50 amounted to 0.0997 µM. Also, at OX1R [1], the EC50 was determined as 0.0333 µM and the OX1/OX2 amounted to 0.33.

With `COc1ccc(-c2cccc(C(=O)N(C)Cc3ccncc3)c2)cc1S(=O)(=O)Nc1cncc(NCCNC(=O)C2CCCCC2)c1` [Compound 68], the OX1/OX2 at OX1R [1] worked out at 0.44.

Take `COc1ccc(-c2cccc(C(=O)N(C)Cc3ccncc3)c2)cc1S(=O)(=O)Nc1cncc(NCCNC(=O)CC2CCCC2)c1` [Compound 69]: the OX1/OX2 at OX1R [1] was 0.57.

For the compound `COc1ccc(-c2cccc(C(=O)N(C)Cc3ccncc3)c2)cc1S(=O)(=O)Nc1cncc(NCCNC(=O)CCC2CCCCC2)c1` [Compound 70], at OX1R [1], the OX1/OX2 turned out to be 0.72.

`COC(=O)N1CCC[C@H](NS(C)(=O)=O)[C@@H]1CO[C@H]1CC[C@@H](c2ccccc2)CC1` [TAK-925]: the “activity at OX1R, in words” value on OX1R [4] is on record as “little to no activity”.

On to `Cc1ccc(Cn2c(=N)n(CC(O)c3ccc(Cl)c(Cl)c3)c3ccccc32)cc1` (centres unmarked) [Yan7874], for which the EC50 on both orexin receptors is over 3.2 µM. Besides, the cytotoxicity result in data set [5] is “orexin receptor independent cytotoxicity”.
